Consider 13 compounds from BindingDB's records for doi:10.1021/jm00059a019 (Merck Research Laboratories, 1993).

pIC50: −log10 of the molar value.

The experiment concerns the target T1, Dimer of Gag-Pol polyprotein [489-587] (Human immunodeficiency virus 1, UniProt P12497).
T1 construct: 489-587
Kind of experiment: Protease Inhibition Assay. Particulars: pH 5.5; 30 °C. As for the experimental part: Sensitivity of HIV-1 protease activity to protease inhibitors was determined by a peptide substrate cleavage assay. Protease products were analyzed on a reverse-phase high-pressure liquid chromatograph.

`CC(C)(C)NC(=O)C1C[C@@H]2CCCC[C@@H]2CN1C[C@@H](O)[C@H](Cc1ccccc1)NC(=O)OCCS(C)(=O)=O` (stereo partly drawn) [2-methanesulfonylethyl N-[(2S,3R)-4-[(4aS,8aS)-3-(tert-butylcarbamoyl)-decahydroisoquinolin-2-yl]-3-hydroxy-1-phenylbutan-2-yl]carbamate] showed a negative-log IC50 (pIC50) of 5.99.
`CC(C)[C@@H]1[C@H](OC(=O)N[C@@H](Cc2ccccc2)[C@H](O)CN2C[C@H]3CCCC[C@H]3CC2C(=O)NC(C)(C)C)CCS1(=O)=O` (stereo partly drawn) [(2R,3R)-1,1-dioxo-2-(propan-2-yl)--thiolan-3-yl N-[(2S,3R)-4-[(4aS,8aS)-3-(tert-butylcarbamoyl)-decahydroisoquinolin-2-yl]-3-hydroxy-1-phenylbutan-2-yl]carbamate] had a negative-log IC50 (pIC50) of 8.52.
The figure for `CC(C)C[C@@H]1[C@H](OC(=O)N[C@@H](Cc2ccccc2)[C@H](O)CN2C[C@H]3CCCC[C@H]3CC2C(=O)NC(C)(C)C)CCS1(=O)=O` (stereo partly drawn) [(2R,3R)-2-(2-methylpropyl)-1,1-dioxo--thiolan-3-yl N-[(2S,3R)-4-[(4aS,8aS)-3-(tert-butylcarbamoyl)-decahydroisoquinolin-2-yl]-3-hydroxy-1-phenylbutan-2-yl]carbamate] is 7.52.
The figure for `CC[C@@H]1[C@H](OC(=O)N[C@@H](Cc2ccccc2)[C@H](O)CN2C[C@H]3CCCC[C@H]3CC2C(=O)NC(C)(C)C)CCS1(=O)=O` (stereo partly drawn) [(2R,3R)-2-ethyl-1,1-dioxo--thiolan-3-yl N-[(2S,3R)-4-[(4aS,8aS)-3-(tert-butylcarbamoyl)-decahydroisoquinolin-2-yl]-3-hydroxy-1-phenylbutan-2-yl]carbamate] is 7.88; for `C[C@H]1OCC[C@H]1OC(=O)N[C@@H](Cc1ccccc1)[C@H](O)CN1C[C@H]2CCCC[C@H]2CC1C(=O)NC(C)(C)C` (stereo partly drawn) [(2R,3R)-2-methyloxolan-3-yl N-[(2S,3R)-4-[(4aS,8aS)-3-(tert-butylcarbamoyl)-decahydroisoquinolin-2-yl]-3-hydroxy-1-phenylbutan-2-yl]carbamate] it is 6.77; for `CC(C)C[C@H]1[C@@H](OC(=O)N[C@@H](Cc2ccccc2)[C@H](O)CN2C[C@H]3CCCC[C@H]3CC2C(=O)NC(C)(C)C)CCS1(=O)=O` (stereo partly drawn) [(2S,3S)-2-(2-methylpropyl)-1,1-dioxo--thiolan-3-yl N-[(2S,3R)-4-[(4aS,8aS)-3-(tert-butylcarbamoyl)-decahydroisoquinolin-2-yl]-3-hydroxy-1-phenylbutan-2-yl]carbamate] it is 7.92.
The figure for `CC[C@H]1[C@@H](OC(=O)N[C@@H](Cc2ccccc2)[C@H](O)CN2C[C@H]3CCCC[C@H]3CC2C(=O)NC(C)(C)C)CCS1(=O)=O` (stereo partly drawn) [(2S,3S)-2-ethyl-1,1-dioxo--thiolan-3-yl N-[(2S,3R)-4-[(4aS,8aS)-3-(tert-butylcarbamoyl)-decahydroisoquinolin-2-yl]-3-hydroxy-1-phenylbutan-2-yl]carbamate] is 8.27; for `C[C@H]1[C@@H](OC(=O)N[C@@H](Cc2ccccc2)[C@H](O)CN2C[C@H]3CCCC[C@H]3CC2C(=O)NC(C)(C)C)CCS1(=O)=O` (stereo partly drawn) [(2S,3S)-2-methyl-1,1-dioxo--thiolan-3-yl N-[(2S,3R)-4-[(4aS,8aS)-3-(tert-butylcarbamoyl)-decahydroisoquinolin-2-yl]-3-hydroxy-1-phenylbutan-2-yl]carbamate] it is 7.94; for `C[C@@H]1OCC[C@@H]1OC(=O)N[C@@H](Cc1ccccc1)[C@H](O)CN1C[C@H]2CCCC[C@H]2CC1C(=O)NC(C)(C)C` (stereo partly drawn) [(2S,3S)-2-methyloxolan-3-yl N-[(2S,3R)-4-[(4aS,8aS)-3-(tert-butylcarbamoyl)-decahydroisoquinolin-2-yl]-3-hydroxy-1-phenylbutan-2-yl]carbamate] it is 7.28.
`CC(C)(C)NC(=O)C1C[C@@H]2CCCC[C@@H]2CN1C[C@@H](O)[C@H](Cc1ccccc1)NC(=O)O[C@@H]1CCS(=O)(=O)C1` (stereo partly drawn) [(3R)-1,1-dioxo--thiolan-3-yl N-[(2S,3R)-4-[(4aS,8aS)-3-(tert-butylcarbamoyl)-decahydroisoquinolin-2-yl]-3-hydroxy-1-phenylbutan-2-yl]carbamate] gave a pIC50 of 6.85. Compared with the last compound, the pIC50 is 0.43 log units lower.
The figure for `CC(C)(C)NC(=O)C1C[C@@H]2CCCC[C@@H]2CN1C[C@@H](O)[C@H](Cc1ccccc1)NC(=O)O[C@H]1CCS(=O)(=O)C1` (stereo partly drawn) [(3S)-1,1-dioxo--thiolan-3-yl N-[(2S,3R)-4-[(4aS,8aS)-3-(tert-butylcarbamoyl)-decahydroisoquinolin-2-yl]-3-hydroxy-1-phenylbutan-2-yl]carbamate] is 7.12.
The figure for `CC(C)[C@H]1[C@@H](OC(=O)N[C@@H](Cc2ccccc2)[C@H](O)CN2C[C@H]3CCCC[C@H]3CC2C(=O)NC(C)(C)C)CCS1(=O)=O` (stereo partly drawn) [hydroxyethylene isostere] is 7.96; for `C[C@@H]1[C@H](OC(=O)N[C@@H](Cc2ccccc2)[C@H](O)CN2C[C@H]3CCCC[C@H]3CC2C(=O)NC(C)(C)C)CCS1(=O)=O` (stereo partly drawn) [hydroxyethylene isostere] it is 7.65.

What is called pIC50 is the negative decadic logarithm of the IC50, by convention in mol/L. A low value points to a large IC50.
